From patent US12116356B2, “N-heterocyclic five-membered ring-containing capsid protein assembly inhibitor, pharmaceutical composition thereof, and use thereof” (CHIA TAI TIANQING PHARMACEUTICAL GROUP CO., LTD., priority 2018, dated 2024)

Experiments:
[1] = In vitro cytotoxicity (CCK-8) in HepAD38 cells; format: cell-based; settings: human
Protocol: A bottle of HepG2.2.15 or HepAD38 cells in good exponential growth state was taken, washed once by adding 5 mL PBS, and then thereto was added 3 mL trypsin. The sample was digested in a cell culture incubator, and taken out from time to time and observed under a microscope. When the cells just fell off, 1 mL trypsin was discarded. The residual liquid was placed in a cell culture incubator at 37° C. and digested for 8-15 min. The cells were taken out and observed under a microscope (whether the cells were individually round and there was no adhesion between the cells). 5 mL MEM medium was added for cell resuspension. The cells were then subjected to cell counting with a cell counter, diluted with a complete medium, and adjusted to a cell density of 2*10^5 cells/mL. Then the cells were seeded at 100 μL/well in a 96-well plate with a multi-channel pipette (the 96-well plate was coated with 50 μg/mL Collagen I solution in advance), and cultured in a constant temperature CO2 incubator for 24 h. The cells were treated by drug administration, and fresh medium containing the compound was used to replace the spent medium every 3 days. To control wells was added a drug-free medium containing 0.5% DMSO, and a control well containing a common medium was set up. 6 days after the administration, CCK-8 was added at 10 μL/well. After 1 to 2 hours, the absorbance was detected with microplate reader at 450 nm, and the inhibition rate and the CC50 were calculated.

[2] = Plasma protein binding assay (equilibrium dialysis), monkey plasma; format: in vitro ADME
Protocol: Formulation of plasma sample: 495 μL of blank plasmas of the corresponding species (mouse, rat, dog, monkey, and human) were drawn respectively, and thereto was added 5 μL of the corresponding test compound solution or positive control to give plasma sample solutions having a plasma drug concentration of the compound of 1 μM, and 10 μM, respectively (formulated with acetonitrile).
The pre-treated dialysis membrane was placed in a high-throughput equilibrium dialysis device, and 100 μL of the plasma sample solution and PBS buffer solution were drawn and added respectively to both sides of the dialysis membrane (sample side and buffer side) (n=3). After the equilibration device was sealed with a film, it was incubated at 37° C. overnight (100 rpm). After dialysis equilibrium was reached, 50 μL samples were drawn from the sample side and the buffer side, respectively, and the reaction was terminated by adding ice acetonitrile containing an internal standard.
Sample pre-treatment: To 50 μL of the plasma-side sample was added 450 μL of ice acetonitrile containing an internal standard, and then precipitated. After vortexing for 5 minutes, the sample was centrifugated (12000 rpm, 4° C.) for 10 minutes. 75 μL of the supernatant was pipetted, and 75 μL of ultrapure water was added thereto for dilution and mixed uniformly. 1 μL of the resulting solution was injected for analysis. To 50 μL of the PBS-side sample was added 250 μL of ice acetonitrile with an internal standard, and precipitated. After vortexing for 5 min, the sample was centrifugated (12000 rpm, 4° C.) for 10 min. 75 μL of the supernatant was pipetted, and 75 μL of ultrapure water was added thereto for dilution and mixed uniformly. 2 μL of the resulting solution was injected for analysis.

[3] = system: rAAV8-1.3HBV virus (adr subtype); experiment: Antiviral effect evaluation in AAV mouse model; format: in vivo, C57BL/6 mice; settings: 30 mpk intragastric once daily, administration for 24 days
Protocol: 6-8 week old male C57BL/6 mice were injected with rAAV8-1.3HBV virus (adr subtype) at tail vein at a dose of 1×10^11 vg. Blood was collected from the orbits of the mice on week 2 and 4 after the virus injection. The serum was separated, and the expression levels of HBeAg and HBsAg in the serum and the HBV DNA copy number were detected to evaluate whether the model was successfully established. According to the results of quantitative detection of serological HBeAg, HBsAg and HBV DNA, the mice having HBV DNA expression level greater than 1×10^4 IU/mL, HBeAg expression level greater than 1×10^3 NCU/mL and HBsAg expression level greater than 1×10^3 ng/mL were selected. The mice were grouped into a blank control group, a vehicle control group, and a test substance group. […] During the experiment, blood was collected from the orbits every other week, serum was separated, and the DNA content was detected by fluorescent quantitative PCR method.

HBV DNA in HepAD38 cells = experiment: In vitro cell HBV DNA inhibitory activity (anti-HBV activity) in HepAD38 cells; format: cell-based; settings: Hepatitis B virus, 144 h; anti-HBV activity in HepAD38 cells, 6 days treatment, intracellular capsid HBV DNA by qPCR; read-out: EC50
In short: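 HepG2.2.15 or HepAD38 cells on collagen-coated plates were grown 48 h, then treated 6 days with 10-point two-fold compound dilutions, with medium and compound refreshed every 72 h. Intracellular capsid HBV DNA quantified by real-time qPCR. EC50 from Ct-based inhibition by four-parameter fit.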

[4] = Stability of mouse liver microsomes in vitro; format: in vitro ADME
Protocol: 300 μL of a final incubation system contains 30 μL of liver microsomes (protein concentration: 0.15 mg/mL), 30 μL NADPH+MgCl2, 3 μL substrate (formulated with acetonitrile), and 237 μL PBS buffer. Duplicate incubation systems of 0.3 mL each were formulated for each species. A total volume of 270 μL of a uniformly mixed solution of the substrate and the enzyme was formulated in each tube, the solution and NADPH were pre-incubated at 37° C. for 5 minutes, respectively. Then 30 μL of the mixed solution of NADPH+MgCl2 was added for reaction. 50 μL of the reaction solution was taken out at 0, 10, 30, and 60 mins, and the reaction was terminated with 300 μL of ice acetonitrile containing an internal standard.
Sample pre-treatment: To 50 μL of the incubated sample was added 300 μL of ice acetonitrile containing diazepam as an internal standard and then precipitated. After vortexing for 5 minutes, the sample was centrifugated (12000 rpm, 4° C.) for 10 minutes. 75 μL of the supernatant was pipetted into a 96-well plate, and then diluted with 75 μL ultrapure water and mixed uniformly. 0.5 μL of the resulting solution was injected and analyzed by LC-MS/MS.

| SMILES | CC50 at 6 days [1] | Binding rate ([2]; 1 μM) | Binding rate ([2]; 10 μM) | Reduction levels (log10) of HBV DNA in serum, Day 7 [3] | Reduction levels (log10) of HBV DNA in serum, Day 14 [3] | Reduction levels (log10) of HBV DNA in serum, Day 21 [3] | Reduction levels (log10) of HBV DNA in serum, Day 28 [3] | EC50 (HBV DNA in HepAD38 cells) | Remaining (%) at 60 min [4] |
| --- | --- | --- | --- | --- | --- | --- | --- | --- | --- |
| Cc1c(C(=O)Nc2ccc(F)c(C#N)c2)c(C)n(C)c1C(=O)C(=O)NC1(C(F)(F)F)COC1 [Example 25, N-(3-cyano-4-fluorophenyl)-1,2,4-trimethyl-5-(2-oxo-2-((3-(trifluoromethyl)oxetan-3-yl)amino)acetyl)-1H-pyrrole-3-carboxamide] | > 100 µM | 87.4% | 85.6% | 1.16 log10 | 1.76 log10 | 2.89 log10 | 1.28 log10 | < 10 nM | 50.8% |
| Cc1c(C(=O)Nc2ccc(F)c(C#N)c2)c(C)n(C)c1C(=O)C(=O)N[C@@H](C)C(F)(F)F [Example 12] | > 100 µM | 90.7% | 90.6% | 2.42 log10 | 3.46 log10 | 5.08 log10 | 2.48 log10 | < 10 nM | 67.1% |
